Assay results published in article PMC12917756, “Unveiling BCL-xL-specific PROTAC efficiency and dissociation pathways using native mass spectrometry” (Chemical Science, 2026).
pIC50: −log10 of the molar value.

Target: T1, VHL (VCB E3 ligase complex) (Homo sapiens, UniProt P40337)
T1 construct: VCB complex (VHL·EloB·EloC); with Elongin B, Elongin C
Assay: fluorescence polarization; ternary complex with BCL-xL by native MS
Format: binding

T1 sequence (P40337 whole entry): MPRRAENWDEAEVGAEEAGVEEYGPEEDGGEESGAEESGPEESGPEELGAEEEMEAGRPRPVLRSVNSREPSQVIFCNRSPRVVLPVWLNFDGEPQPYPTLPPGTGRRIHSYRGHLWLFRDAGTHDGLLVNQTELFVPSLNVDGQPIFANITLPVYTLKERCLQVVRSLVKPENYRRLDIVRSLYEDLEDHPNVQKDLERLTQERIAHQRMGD
T1 sequence (Q15370 whole entry partner): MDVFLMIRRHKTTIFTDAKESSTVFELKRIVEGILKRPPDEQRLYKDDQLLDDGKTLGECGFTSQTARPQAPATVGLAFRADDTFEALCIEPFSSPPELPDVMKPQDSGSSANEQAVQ
T1 sequence (Q15369 whole entry partner): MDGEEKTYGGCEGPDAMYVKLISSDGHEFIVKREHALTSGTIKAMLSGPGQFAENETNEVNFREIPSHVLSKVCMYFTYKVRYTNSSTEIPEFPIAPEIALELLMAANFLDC

## Cc1ncsc1-c1ccc([C@H](C)NC(=O)[C@@H]2C[C@@H](O)CN2C(=O)[C@@H](NC(=O)CCCCCC(=O)N2CCN(CC[C@H](CSc3ccccc3)Nc3ccc(S(=O)(=O)NC(=O)c4ccc(N5CCN(CC6=C(c7ccc(Cl)cc7)CCC(C)(C)C6)CC5)cc4)cc3S(=O)(=O)C(F)(F)F)CC2)C(C)(C)C)cc1 [DT2216]
  pIC50: 4.97
